According to patent US20090030072A1, “PHARMACEUTICAL COMBINATION OF OPIOID AND PRO[…]” (SUCAMPO AG, priority 2007, published 2009):

Test system: oxycodone-induced constipation in mice
Assay: Graphite marker propulsion in the intestine, oxycodone-induced constipation in mice
Format: in vivo, Male Crlj: CD1 (ICR) mice
Conditions: 150 minutes after graphite marker
Procedure: Male Crlj: CD1 (ICR) mice were given oral administration of 0.1 mL of graphite maker (INK-30 containing 1% tragacanth gum). Immediately after administration of the graphite marker, the animals were treated orally with oxycodone at 5 mg/kg. The dosing volume of oxycodone was set at 5 mL/kg; the animals of the normal group were given the same volume of 0.5% CMC—Na. Immediately after administration of oxycodone or 0.5% CMC—Na, the animal was treated with Compound 1. The dosing volume of the Compound 1 was set at 5 mL/kg; the animals of the normal and control groups were given the same volume of water for injection. The animals were euthanized by cervical dislocation 150 minutes after administration of graphite marker, and the abdomen was cut open. The distance from the stomach to the cecum, and moving distance of the graphite marker in the intestine were measured. Propulsion rate was calculated by the following formula.
Propulsion rate (%)=(Moving distance of graphite marker/Distance from the stomach to the cecum)×100

Structure (SMILES) | The graphite marker propulsion rate Mean ± S.E. (Compound 1 100 μg/kg combined with oxycodone 5 mg/kg oral, n=15, p < 0.05 compared to control group) [%] | The graphite marker propulsion rate Mean ± S.E. (control group: oxycodone 5 mg/kg oral alone, n=15, p < 0.01 compared to normal group (99.8 ± 0.2)) [%] | The graphite marker propulsion rate Mean ± S.E. (control group: oxycodone 5 mg/kg oral alone, n=15, p < 0.01 compared to normal group (99.8 ± 0.2), listed as Oxycodone) [%]
CCCCC(F)(F)C(=O)CCC1C(O)CC(=O)C1CCCCCCC(=O)O (stereo not drawn) [Compound 1, 13,14-dihydro-15-keto-16,16-difluoro-PGE1] | 80.5±5.5 |  | 
COc1ccc2c3c1O[C@H]1C(=O)CC[C@@]4(O)[C@@H](C2)N(C)CC[C@]314 [oxycodone] |  | 62.3±5.6 | 62.3 ± 5.6
